Measurements from ChEMBL document CHEMBL1146899, “Redefining the structure-activity relationships of 2,6-methano-3-benzazocines. 4. Opioid receptor binding properties of 8-[N-(4'-phenyl)-phenethyl)carboxamido] analogues of cyclazocine and ethylketocycalzocine” (J Med Chem, 2006).
Calls of active or inactive are those of the source. The rule behind the calls is not given here.

Experiments:
[1] = biological target: Mu-type opioid receptor (Homo sapiens, UniProt P35372); test: Displacement of [3H]DAMGO from human mu opioid receptor expressed in CHO cells; format: cell-based
Mu-type opioid receptor, sequence (P35372 whole entry): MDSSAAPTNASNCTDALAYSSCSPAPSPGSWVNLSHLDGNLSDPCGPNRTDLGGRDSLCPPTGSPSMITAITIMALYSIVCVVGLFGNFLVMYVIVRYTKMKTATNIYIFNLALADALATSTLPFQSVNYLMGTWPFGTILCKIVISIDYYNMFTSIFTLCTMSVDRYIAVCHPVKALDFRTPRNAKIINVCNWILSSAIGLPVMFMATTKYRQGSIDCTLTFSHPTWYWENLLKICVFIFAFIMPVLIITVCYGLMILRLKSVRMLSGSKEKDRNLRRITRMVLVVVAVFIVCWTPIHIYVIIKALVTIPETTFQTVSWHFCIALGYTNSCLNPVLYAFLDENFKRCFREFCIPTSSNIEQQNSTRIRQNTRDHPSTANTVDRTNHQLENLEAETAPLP

[2] = biological target: Delta-type opioid receptor (Homo sapiens, UniProt P41143); test: Displacement of [3H]naltrindole from human delta opioid receptor expressed in CHO cells; format: cell-based
Delta-type opioid receptor, sequence (P41143 whole entry): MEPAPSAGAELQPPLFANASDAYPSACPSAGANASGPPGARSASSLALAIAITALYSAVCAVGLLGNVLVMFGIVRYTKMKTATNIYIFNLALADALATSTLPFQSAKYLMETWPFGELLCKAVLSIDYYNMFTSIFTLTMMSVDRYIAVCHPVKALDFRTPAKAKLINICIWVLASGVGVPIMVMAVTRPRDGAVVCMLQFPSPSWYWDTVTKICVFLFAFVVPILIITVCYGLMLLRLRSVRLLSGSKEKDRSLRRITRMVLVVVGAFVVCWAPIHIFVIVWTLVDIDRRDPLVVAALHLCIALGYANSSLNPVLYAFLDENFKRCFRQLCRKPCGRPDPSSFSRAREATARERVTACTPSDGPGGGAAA

[3] = biological target: Kappa-type opioid receptor (Homo sapiens, UniProt P41145); test: biochemical; format: cell-based, CHO
Kappa-type opioid receptor, sequence (P41145 whole entry): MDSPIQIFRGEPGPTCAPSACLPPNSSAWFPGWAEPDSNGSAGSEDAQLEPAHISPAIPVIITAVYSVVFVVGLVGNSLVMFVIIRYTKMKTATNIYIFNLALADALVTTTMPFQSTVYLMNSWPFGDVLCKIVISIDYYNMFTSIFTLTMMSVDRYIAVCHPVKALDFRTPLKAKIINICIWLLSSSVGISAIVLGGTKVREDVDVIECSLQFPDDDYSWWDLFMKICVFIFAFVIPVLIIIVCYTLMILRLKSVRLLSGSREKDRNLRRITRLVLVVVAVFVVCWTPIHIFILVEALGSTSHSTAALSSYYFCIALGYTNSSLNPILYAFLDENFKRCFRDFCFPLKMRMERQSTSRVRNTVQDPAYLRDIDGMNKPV
Description: Displacement of [3H]U-69593 from human kappa opioid receptor expressed in CHO cells

[4] = tested on: Mus musculus; test: Antinociceptive activity in mouse at 1 mg/kg, ip; format: functional, organism-based; design: dose 1 mg/kg

Q: With `C[C@H]1C2Cc3ccc(C(=O)Nc4ccccc4)cc3[C@@]1(C)CCN2CC1CC1` as the compound, how does the Ki [1] read?
A: 840 nM

Q: And the Ki [2]?
A: 2100 nM

Q: And the Ki [3]?
A: 270 nM

Q: For `C[C@H]1C2Cc3ccc(C(N)=O)cc3[C@@]1(C)CCN2CC1CC1`, which Ki [2] is on record?
A: 5.2 nM

Q: What about the Activity [4] of the same compound?
A: Active

Q: With `CC[C@@]12CCN(CC3CC3)C(C(=O)c3ccc(C(N)=O)cc31)[C@@H]2C` as the compound, how does the Ki [1] read?
A: 2.1 nM

Q: And the Ki [2]?
A: 23 nM

Q: And the Ki [3]?
A: 0.47 nM

Q: For `C[C@H]1C2Cc3ccc(C(=O)NCc4ccc(-c5ccccc5)cc4)cc3[C@@]1(C)CCN2CC1CC1` (mixture of isomers), which Ki [1] is on record?
A: 11 nM

Q: And the Ki [2]?
A: 170 nM

Q: What about the Ki [3] of the same compound?
A: 26 nM

Q: Which Ki [1] does the source give for `C[C@H]1C2Cc3ccc(C(=O)NCCc4ccccc4)cc3[C@@]1(C)CCN2CC1CC1` (mixture of isomers) here?
A: 3.5 nM

Q: What about the Ki [2] of the same compound?
A: 59 nM

Q: What about the Ki [3] of the same compound?
A: 1.7 nM

Q: What does the source list for `C[C@H]1C2Cc3ccc(C(=O)NCCCc4ccccc4)cc3[C@@]1(C)CCN2CC1CC1` (mixture of isomers)?
A: Ki [1]: 2.5 nM; Ki [2]: 47 nM; Ki [3]: 3 nM

Q: Which results are given for `C[C@H]1C2Cc3ccc(C(=O)NCc4ccccc4)cc3[C@@]1(C)CCN2CC1CC1` (mixture of isomers)?
A: Ki [1]: 27 nM; Ki [2]: 210 nM; Ki [3]: 36 nM

Q: How did the Ki [1] turn out when `CC[C@@]12CCN(CC3CC3)C(C(=O)c3ccc(C(=O)NCCc4ccc(-c5ccccc5)cc4)cc31)[C@@H]2C` (mixture of isomers) was run?
A: 3.1 nM

Q: And the Ki [2]?
A: 3.9 nM

Q: And the Ki [3]?
A: 1.3 nM

Q: For `C[C@H]1C2Cc3ccc(C(=O)Nc4ccc(-c5ccccc5)cc4)cc3[C@@]1(C)CCN2CC1CC1` (mixture of isomers), which Ki [1] is on record?
A: 18 nM

Q: And the Ki [2]?
A: 110 nM

Q: And the Ki [3]?
A: 27 nM

Q: Which Ki [1] does the source give for `C[C@H]1C2Cc3ccc(C(=O)N(C)CCc4ccc(-c5ccccc5)cc4)cc3[C@@]1(C)CCN2CC1CC1` (racemic) here?
A: 6.7 nM

Q: What about the Ki [2] of the same compound?
A: 12 nM

Q: What about the Ki [3] of the same compound?
A: 11 nM
